Columns and labels:
[1] = cited from earlier work
cultured PINK cells = assay: qRT-PCR gene expression in lenalidomide- or pomalidomide-treated cultured PINK cells; assay type: cell-based, human; details: treated vs untreated cultured PINK cells
Description: RNA isolation and purification.
Quantitative real-time (qRT-PCR) analysis.

Structure (SMILES)	stability at higher relative humidities [1]	further results
Nc1cccc2c1CN(C1CCC(=O)NC1=O)C2=O (stereo not shown) [Form B, 3-(4-amino-1-oxo-1,3 dihydro-isoindol-2-yl)-piperidene-2,6-dione]		stability in aqueous solvent systems ([1]; aqueous solvent systems): converts to Form E in aqueous solvent systems
Nc1cccc2c1CN(C1CCC(=O)NC1=O)C2=O (stereo not shown) [Form D, 3-(4-amino-1-oxo-1,3 dihydro-isoindol-2-yl)-piperidene-2,6-dione]	will typically convert to Form B	
Nc1cccc2c1C(=O)N(C1CCC(=O)NC1=O)C2=O (racemic) [pomalidomide, 4-(Amino)-2-(2,6-dioxo(3-piperidyl))-isoindoline-1,3-dione]		Fold change of gene expression, LTA (cultured PINK cells): 2.68 fold
Nc1cccc2c1CN(C1CCC(=O)NC1=O)C2=O (stereo not shown) [Form C, 3-(4-amino-1-oxo-1,3 dihydro-isoindol-2-yl)-piperidene-2,6-dione]	can convert to Form B	
